# Measured values as given in publication PMC11979273, “A phase I study to evaluate the safety, tolerability, and pharmacokinetics of HEC113995PA·H2O, a novel dual-acting serotonergic antidepressant, in healthy subjects” (Frontiers in Pharmacology, 2025).
# Assay: Single ascending-dose study, safety (adverse events)
# Type: in vivo, human
# Protocol: The study comprised a total of 7 dose groups (2.5, 5, 10, 20, 40, 60, and 80 mg groups, respectively). The first dose group (2.5 mg) consisted of 8 subjects, with 6 receiving HEC113995PA·H2O and 2 receiving placebo. Dose groups 2–7 each included 10 subjects, with 8 subjects receiving HEC113995PA·H2O and 2 subjects receiving placebo. Male and female participants were randomly assigned to the groups. Serial blood samples were collected before and after drug administration to determine the plasma concentration of pharmacokinetics (PK) and to evaluate the pharmacokinetic characteristics. The time points of blood collection and safety evaluation of PK in the second to seventh dose groups were adjusted based on the results of the first dose group. Drug safety and tolerability were evaluated on day 2 and 4 in the first dose group and on day 4 and 7 in the second to seventh dose groups. The trial was conducted in a dose-escalation manner, with progression to the next dose arm only after the safety of the previous arm had been evaluated. In the fourth group (20 mg group), in addition to blood samples, urine and stool samples were also collected for in vivo drug metabolic transformation studies.
# Safety indicators were assessed through adverse events (AE), clinical laboratory tests (including blood routine, blood biochemistry, urine routine), vital signs monitoring (ear temperature), pulse, respiration and blood pressure in a sitting position), 12-lead electrocardiogram (ECG) and physical examinations. Adverse events (AE) and serious adverse events (SAE) were evaluated following the criteria outlined in National Cancer Institute Common Terminology Criteria for Adverse Events (NCI-CTCAE) version 5.0.
# Any adverse events that occurred in all subjects during the clinical trial were recorded with the following details: AE name, occurrence time, end time, severity, whether it was classified as a SAE, severity criteria (if applicable), treatment measures and outcomes, actions taken on investigational drug due to the AE, and the causal relationship between the AE and administrated drug, etc. Each AE was recorded separately.
# The subjects were under close monitoring at the clinical research center until the sample retention and safety evaluation were completed. During the safety trial, drug intolerance of a given dose was defined as follows: grade 2 or higher drug-related AEs occurred in more than half of the subjects, or grade 3 or higher drug-related AEs occurred in more than one quarter of the subjects. The dose escalation was halted after drug intolerance occurred.
compound,measurement,setting,value
Cc1nc(-c2cnc(N3CCN(CCCc4c[nH]c5ccc(C#N)cc45)CC3)nc2)sc1C(N)=O [HEC113995PA·H2O],incidence of subjects experiencing TEAEs,"SAD 2.5 mg group, 1 case",16.7%
same,incidence of subjects experiencing TEAEs,"SAD 5 mg group, 3 cases",37.5%
same,number of subjects experiencing TEAEs,SAD 10 mg group,0 case
same,incidence of subjects experiencing TEAEs,"SAD 20 mg group, 5 cases",62.5%
same,incidence of subjects experiencing TEAEs,"SAD 40 mg group, 6 cases",75%
same,incidence of subjects experiencing TEAEs,"SAD 60 mg group, 7 cases",87.5%
same,incidence of subjects experiencing TEAEs,"SAD 80 mg group, 7 cases",87.5%
same,incidence of subjects experiencing TEAEs,"SAD overall safety analysis set incl. placebo, 36 subjects",52.9%
same,incidence of subjects experiencing TRAE,"SAD overall safety analysis set, 33 cases",48.5%
same,TRAE incidence: abdominal distension,"SAD overall, 1 case",1.9%
same,TRAE incidence: elevated conjugated bilirubin,"SAD overall, 1 case",1.9%
same,TRAE incidence: elevated serum bilirubin,"SAD overall, 1 case",1.9%
same,TRAE incidence: elevated serum creatine phosphokinase,"SAD overall, 1 case",1.9%
same,TRAE incidence: hyperuricemia,"SAD overall, 5 cases",7.4%
same,TRAE incidence: nausea,"SAD overall, 5 cases",7.4%
same,TRAE incidence: dizziness,"SAD overall, 8 cases",11.8%
same,TRAE incidence: elevated triglycerides,"SAD overall, 8 cases",11.8%
same,TRAE incidence: diarrhea,"SAD overall, 13 cases",19.1%
same,severity of elevated conjugated bilirubin,"SAD, CTCAE 5.0",grade 2
same,severity of other TRAEs,"SAD, CTCAE 5.0, spontaneously relieved without treatment",grade 1
same,tolerability,"healthy Chinese subjects, single dose range 2.5–80 mg",well tolerated
